Earlier results in patent US9862672B2, “Antioxidant-based poly(anhydride-esters)” (RUTGERS, THE STATE UNIVERSITY OF NEW JERSEY, priority 2013, dated 2018).

Conditions: in vivo

Elimination half-life: less than 2 hours
Structure (SMILES): COc1cc(/C=C/C(=O)O)ccc1O [Ferulic acid]
